# Test results as given in US20190159451A1, “ACTIVE COMPOUND COMBINATIONS AND METHODS TO PROTECT THE PROPAGATION MATERIAL OF PLANTS” (Bayer CropScience Aktiengesellschaft, priority 2016, published 2019).
# How the values were obtained:
# [1] = tested on: Ctenocephalides felis; assay: Ctenocephalides felis in-vitro contact test, adult cat flea; type: in vivo; conditions: 5 μg/cm^2 (=500 g/ha), after 48 hours
# Description: Ctenocephalides felis—In-Vitro Contact Tests Adult Cat Flea
# 9 mg compound is solved in 1 ml acetone and diluted with acetone to the desired concentration. 250 μl of the test solution is filled in 25 ml glass test tubes and homogeneously distributed on the inner walls by rotation and tilting on a shaking device (2 h at 30 rpm). With a compound concentration of 900 ppm, an inner surface of 44.7 cm^2 and a homogeneous distribution, a dose of […] is achieved.
# After the solvent has evaporated, each test tube is filled with 5-10 adult cat fleas (Ctenocephalides felis), closed with a perforated lid and incubated in a lying position at room temperature and relative humidity. After 48 hours efficacy is determined. The fleas are patted on the ground of the tubes and are incubated on a heating plate at 45-50° C. for at most 5 minutes. Immotile or uncoordinated moving fleas, which are not able to escape the heat by climbing upwards, are marked as dead or moribund.
# An efficacy of 100% means all fleas are dead or moribund; 0% means no fleas are dead or moribund.
# [2] = tested on: Musca domestica; assay: Musca domestica test (MUSCDO); type: in vivo; conditions: for mortality: after 2 days, adult house flies
# Description: Musca domestica—Test (MUSCDO)
# (§1) Solvent: dimethyl sulfoxide
# To produce a suitable preparation of active compound, 10 mg of active compound are dissolved in 0.5 ml solvent, and the concentrate is diluted with water to the desired concentration.
# 10 adult house flies (Musca domestica) are transferred into a container, containing a sponge soaked with a mixture of sugar solution and compound solution of the desired concentration.
# After 2 days mortality in % is determined. 100% means all the flies have been killed; 0% means none of the flies have been killed.
# [3] = tested on: Diabrotica balteata; assay: Diabrotica balteata spray test; type: in vivo; conditions: 160 μg/well, after 7 days, larvae on germinated wheat seeds
# Description: Diabrotica balteata—Spray Test
# (§2) Solvent: 78.0 parts by weight of acetone • • 1.5 parts by weight of dimethylformamide
# (§3) Emulsifier: alkylarylpolyglycol ether
# (§4) To produce a suitable preparation of active compound, 1 part by weight of active compound is mixed with the stated amount of solvent, and the concentrate is diluted with water, containing an emulsifier concentration of 1000 ppm, to the desired concentration. Further test concentrations are prepared by dilution with emulsifier containing water.
# Soaked wheat seeds (Triticum aestivum) are placed in a multiple well plate filled with agar and some water and are incubated for 1 day to germinate (5 seeds per well). The germinated wheat seeds are sprayed with a test solution containing the desired concentration of the active ingredient. Afterwards each unit is infected with 10-20 larvae of the banded cucumber beetle (Diabrotica balteata).
# After 7 days efficacy in % is determined. 100% means all the seedlings have grown up like in the untreated, uninfected control; 0% means none of the seedlings have grown.
# [4] = tested on: Myzus persicae; assay: Myzus persicae oral test; type: in vivo
# Description: Solvent: 100 parts by weight acetone
# To produce a suitable preparation of active compound, 1 part by weight of active compound is mixed with the stated amount of solvent, and the concentrate is diluted with water to the desired concentration. 50 μl compound solution is filled in microtiter plates and 150 μl IPL41 insect medium (33%+15% sugar) is added to obtain a total volume of […] per well. Afterwards the plates are sealed with parafilm through which a mixed population of the green peach aphid (Myzus persicae) can suck on the compound preparation.
# After 5 days mortality in % is determined. 100% means all aphids have been killed and 0% means none of the aphids have been killed.
# [5] = tested on: Myzus persicae; assay: Myzus persicae spray test; type: in vivo; conditions: for mortality: 100 g/ha, after 6 days, Chinese cabbage leaf disks
# Description: Myzus persicae—Spray Test
# (§5) Solvent: 78.0 parts by weight acetone • 1.5 parts by weight dimethylformamide
# as §3
# as §4, with “solvents” for “solvent,”, “and” for “and the concentrate”
# Chinese cabbage (Brassica pekinensis) leaf disks infected with all instars of the green peach aphid (Myzus persicae), are sprayed with a preparation of the active ingredient of the desired concentration.
# After 6 days mortality in % is determined. 100% means all aphids have been killed and 0% means none of the aphids have been killed.
# [6] = tested on: Nezara viridula; assay: Nezara viridula spray test; type: in vivo
# Description: Nezara viridula—Spray Test
# as §2, §3, §4
# Barley plants (Hordeum vulgare) infested with larvae of the southern green stink bug (Nezara viridula) are sprayed with a test solution containing the desired concentration of the active ingredient.
# After 4 days mortality in % is determined. 100% means all the stink bugs have been killed; 0% means none of the stink bugs have been killed.
# [7] = tested on: Nilaparvata lugens; assay: Nilaparvata lugens spray test; type: in vivo
# Description: Nilaparvata lugens—Spray Test
# as §2, §3
# as §4, with “solvents” for “solvent,”, “and” for “and the concentrate”
# Rice plants (Oryza sativa) are sprayed with a preparation of the active ingredient of the desired concentration and the plants are infested with the brown planthopper (Nilaparvata lugens).
# After 4 days mortality in % is determined. 100% means all planthoppers have been killed and 0% means none of the planthoppers have been killed.
# [8] = tested on: Phaedon cochleariae; assay: Phaedon cochleariae spray test; type: in vivo; conditions: 20 g/ha, after 7 days, larvae on Chinese cabbage leaf disks
# Description: Phaedon cochleariae—Spray Test
# as §2, §3
# as §4, with “solvents” for “solvent,”, “and” for “and the concentrate”
# Chinese cabbage (Brassica pekinensis) leaf disks are sprayed with a preparation of the active ingredient of the desired concentration. Once dry, the leaf disks are infested with mustard beetle larvae (Phaedon cochleariae).
# After 7 days mortality in % is determined. 100% means all beetle larvae have been killed and 0% means none of the beetle larvae have been killed.
# [9] = tested on: Lucilia cuprina; assay: Lucilia cuprina test (LUCICU); type: in vivo; conditions: 48 h
# Description: Lucilia cuprina—Test (LUCICU)
# as §1
# 10 mg active compound are dissolved in 0.5 ml Dimethylsulfoxid. Serial dilutions are made to obtain the desired rates.
# Approximately 20 1st instar larvae of the Australian sheep blowfly (Lucilia cuprina) are transferred into a test tube containing minced horse meat and compound solution of the desired concentration.
# After 2 days mortality in % is determined. 100% means all the larvae have been killed; 0% means none of the larvae have been killed.
# [10] = Log P (HCOOH); type: physicochemical; conditions: HCOOH (formic acid); read-out: Log P-Wert (HCOOH)
# [11] = tested on: Tetranychus urticae; assay: whole plant or invertebrate; type: in vivo; conditions: in Phaseolus vulgaris, foliar, 144 h
# Description: Tetranychus urticae—Spray Test OP-Resistant
# as §5, §3
# as §4, with “solvents” for “solvent,”, “and” for “and the concentrate”
# French bean (Phaseolus vulgaris) leaf disks infected with all instars of the two spotted spidermite (Tetranychus urticae), are sprayed with a preparation of the active ingredient of the desired concentration.
# After 6 days mortality in % is determined. 100% means all spider mites have been killed and 0% means none of the spider mites have been killed.
# [12] = Myzus persicae, in Brassica rapa, foliar, 144 h
structure (smiles),measurement,setting,value
O=C(C=C1NCCCN1Cc1ccc(Br)nc1)C(F)(F)F [Example I-8],efficacy (fleas dead or moribund),[1],100%
same,mortality,[2]; 20 ppm,100%
same,efficacy (seedlings grown),[3],100%
same,mortality,"[4]; 20 ppm, after 5 days, oral",100%
same,mortality,[5],90%
same,mortality,"[6]; 500 g/ha, after 4 days, larvae on barley plants",90%
same,mortality,"[7]; 500 g/ha, after 4 days, rice plants",100%
same,mortality,[8],100%
O=C(C=C1SCCN1Cc1ccc(Br)nc1)C(F)(F)F [Example I-4],efficacy (fleas dead or moribund),[1],100%
same,mortality,[2]; 4 ppm,100%
same,efficacy (seedlings grown),[3],100%
"O=C(/C=C1\SCCN1Cc1ccc(Cl)nc1)C(F)(F)F [Example I-1, 3-[3-[(6-Chloro-3-pyridinyl)methyl]-2-thiazolidinylidene]-1,1,1-trifluoro-2-propanone]",efficacy (fleas dead or moribund),[1],100%
same,mortality at 100 ppm,[9],100%
same,mortality at 4 ppm,"[2]; Musca domestica, 48 h",90%
same,efficacy (seedlings grown),[3],100%
same,mortality at 100 g/ha,[5]; [12],90%
same,chromatographic logP,[10],2.21
O=C(C=C1NCCN1Cc1ccc(Cl)nc1)C(F)(F)F [Example I-5],efficacy (fleas dead or moribund),[1],100%
same,mortality,[2]; 4 ppm,100%
"O=C(/C=C1\SCCN1Cc1ccc(F)nc1)C(F)(F)F [Example I-2, 3-[3-[(6-Fluoro-3-pyridinyl)methyl]-2-thiazolidinylidene]-1,1,1-trifluoro-2-propanone]",efficacy (fleas dead or moribund),[1],100%
same,mortality at 100 ppm,[9],100%
same,mortality at 4 ppm,"[2]; Musca domestica, 48 h",80%
same,mortality at 20 ppm,"[2]; Musca domestica, 48 h",95%
same,efficacy (seedlings grown),[3],100%
same,mortality at 20 ppm,"[4]; Myzus persicae, po, 120 h",100%
same,mortality at 500 g/ha,[5]; [12],100%
same,mortality at 500 g/ha,"[6]; Nezara viridula, in Hordeum vulgare, 96 h",90%
same,mortality at 500 g/ha,"[7]; Nilaparvata lugens, in Oryza sativa, 96 h",100%
same,mortality at 500 g/ha,[11],80%
same,chromatographic logP,[10],2.25
"O=C(/C=C1\NCCN1Cc1ccc(Br)nc1)C(F)(F)F [Example I-3, 3-[1-[(6-Bromo-3-pyridinyl)methyl]-2-imidazolidinylidene]-1,1,1-trifluoro-2-propanone]",efficacy (fleas dead or moribund),[1],100%
same,mortality at 100 ppm,[9],100%
same,mortality at 4 ppm,"[2]; Musca domestica, 48 h",80%
same,efficacy (seedlings grown),[3],100%
same,mortality at 100 g/ha,[5]; [12],90%
O=C(C=C1NCCCN1Cc1ccc(Cl)nc1)C(F)(F)F [Example I-7],efficacy (fleas dead or moribund),[1],100%
same,mortality,[5],90%
same,mortality,[8],100%
O=C(C=C1NCCCN1Cc1ccc(F)nc1)C(F)(F)F [Example I-6],efficacy (fleas dead or moribund),[1],100%
same,mortality,[2]; 20 ppm,100%
same,efficacy (seedlings grown),[3],100%
